Results from ChEMBL document CHEMBL1139662, “Synthesis and biological investigation of new 4''-malonyl tethered derivatives of erythromycin and clarithromycin” (Bioorg Med Chem Lett, 2006).
In brackets after ≈: the same amount, converted by molar mass.

What was measured:
Escherichia coli [1] = experiment: Antibacterial activity against macrolide-sensitive Escherichia coli HN818; type: functional
Escherichia coli [2] = experiment: Inhibition of protein synthesis in Escherichia coli cell-free translational system; type: functional

Structure (SMILES)	MIC (Escherichia coli [1]) [µg/mL]	IC50 (Escherichia coli [2]) [nM]
CC[C@H]1OC(=O)[C@H](C)[C@@H](OC2C[C@@](C)(OC)[C@@H](OC(=O)CC(=O)OCc3ccccc3)[C@H](C)O2)[C@H](C)[C@@H](OC2O[C@H](C)C[C@H](N(C)C)[C@H]2O)[C@](C)(O)C[C@@H](C)C(=O)[C@H](C)[C@@H](O)[C@]1(C)O (stereo partly drawn)	8 (≈ 8.79 µM)	1100
CC[C@H]1OC(=O)[C@H](C)[C@@H](OC2C[C@@](C)(OC)[C@@H](OC(=O)CC(=O)O)[C@H](C)O2)[C@H](C)[C@@H](OC2O[C@H](C)C[C@H](N(C)C)[C@H]2O)[C@](C)(OC)C[C@@H](C)C(=O)[C@H](C)[C@@H](O)[C@]1(C)O (stereo partly drawn)	128 (≈ 153 µM)	3900
CC[C@H]1OC(=O)[C@H](C)[C@@H](OC2C[C@@](C)(OC)[C@@H](OC(=O)CC(=O)OCc3ccccc3)[C@H](C)O2)[C@H](C)[C@@H](OC2O[C@H](C)C[C@H](N(C)C)[C@H]2O)[C@](C)(OC)C[C@@H](C)C(=O)[C@H](C)[C@@H](O)[C@]1(C)O (stereo partly drawn)	8 (≈ 8.66 µM)	1200
CC[C@H]1OC(=O)[C@H](C)[C@@H](O[C@H]2C[C@@](C)(OC)[C@@H](O)[C@H](C)O2)[C@H](C)[C@@H](O[C@@H]2O[C@H](C)C[C@H](N(C)C)[C@H]2O)[C@](C)(OC)C[C@@H](C)C(=O)[C@H](C)[C@@H](O)[C@]1(C)O [CLARITHROMYCIN]	2 (≈ 2.67 µM)	–
CC[C@H]1OC(=O)[C@H](C)[C@@H](O[C@H]2C[C@@](C)(OC)[C@@H](O)[C@H](C)O2)[C@H](C)[C@@H](O[C@@H]2O[C@H](C)C[C@H](N(C)C)[C@H]2O)[C@](C)(O)C[C@@H](C)C(=O)[C@H](C)[C@@H](O)[C@]1(C)O [ERYTHROMYCIN]	2 (≈ 2.73 µM)	900

Next, values leading:

MIC (Escherichia coli [1]) [µg/mL]	IC50 (Escherichia coli [2]) [nM]	Structure (SMILES)
8 (≈ 8.85 µM)	1100	CC[C@H]1OC(=O)[C@H](C)[C@@H](OC2C[C@@](C)(OC)[C@@H](OC(=O)CC(=O)N(C)CCN(C)C)[C@H](C)O2)[C@H](C)[C@@H](OC2O[C@H](C)C[C@H](N(C)C)[C@H]2O)[C@](C)(O)C[C@@H](C)C(=O)[C@H](C)[C@@H](O)[C@]1(C)O (stereo partly drawn)
128 (≈ 156 µM)	3700	CC[C@H]1OC(=O)[C@H](C)[C@@H](OC2C[C@@](C)(OC)[C@@H](OC(=O)CC(=O)O)[C@H](C)O2)[C@H](C)[C@@H](OC2O[C@H](C)C[C@H](N(C)C)[C@H]2O)[C@](C)(O)C[C@@H](C)C(=O)[C@H](C)[C@@H](O)[C@]1(C)O (stereo partly drawn)
